From patent US9409917B2, “Heterocyclic amide derivatives as P2X7 receptor antagonists” (ACTELION PHARMACEUTICALS LTD., priority 2012, dated 2016) come the findings set out here.

Chain of human recombinant P2X7 receptor (Q99572 whole entry): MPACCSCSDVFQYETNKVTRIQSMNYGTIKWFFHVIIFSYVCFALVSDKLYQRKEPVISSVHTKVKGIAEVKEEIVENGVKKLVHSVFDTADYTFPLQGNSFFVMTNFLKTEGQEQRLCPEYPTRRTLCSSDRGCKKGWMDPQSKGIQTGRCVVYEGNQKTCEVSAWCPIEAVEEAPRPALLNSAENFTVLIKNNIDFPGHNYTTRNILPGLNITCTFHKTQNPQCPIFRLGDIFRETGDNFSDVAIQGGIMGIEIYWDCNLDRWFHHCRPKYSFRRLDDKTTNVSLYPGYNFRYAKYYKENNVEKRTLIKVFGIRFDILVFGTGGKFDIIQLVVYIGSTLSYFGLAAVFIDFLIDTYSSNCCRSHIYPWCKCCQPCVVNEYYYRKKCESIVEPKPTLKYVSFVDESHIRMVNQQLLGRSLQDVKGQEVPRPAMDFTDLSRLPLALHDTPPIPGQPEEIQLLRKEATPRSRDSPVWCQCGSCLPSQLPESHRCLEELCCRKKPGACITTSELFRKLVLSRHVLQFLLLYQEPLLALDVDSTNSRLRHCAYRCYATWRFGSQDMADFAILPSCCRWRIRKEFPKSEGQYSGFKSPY

The first test addresses human recombinant P2X7 receptor (Homo sapiens (Human), UniProt Q99572). The test is described as follows: YO-PRO assay: P2X7 receptor antagonistic activity (ATP-induced YO-PRO-1 uptake, FLIPR).
Conditions: not given
Consider `O=C(NCc1ccc(Cl)cc1Cl)C1COc2ncccc21` (racemic) [Example 5, rac-2,3-Dihydro-furo[2,3-b]pyridine-3-carboxylic acid 2,4-dichloro-benzylamide], for which the IC50 came out at 59.2 nM.

With `O=C(NCc1c(F)cc(Cl)cc1Cl)C1COc2ncccc21` (racemic) [Example 15, rac-2,3-Dihydro-furo[2,3-b]pyridine-3-carboxylic acid 2,4-dichloro-6-fluoro-benzylamide], the IC50 turned out to be 66.8 nM.

For `O=C(NCc1c(Cl)cccc1CO)C1COc2ncccc21` (racemic) [Example 118, rac-2,3-Dihydro-furo[2,3-b]pyridine-3-carboxylic acid 2-chloro-6-hydroxymethyl-benzylamide], the IC50 is 304 nM.

Turning to `O=C(NCc1ccc(C(F)(F)F)cc1)C1CCOc2ncccc21` (racemic) [Example 36, rac-3,4-Dihydro-2H-pyrano[2,3-b]pyridine-4-carboxylic acid 4-trifluoromethyl-benzylamide], the IC50 came out at 334 nM.

As for `O=C(NCCc1ccc(Cl)cc1Cl)C1CCOc2ncccc21` (racemic) [Example 38, rac-3,4-Dihydro-2H-pyrano[2,3-b]pyridine-4-carboxylic acid [2-(2,4-dichloro-phenyl)-ethyl]-amide], the IC50 came to 67.1 nM.

Turning to `O=C(NCc1ccc(Oc2ccccc2)cc1)C1CCOc2ncccc21` (racemic) [Example 33, rac-3,4-Dihydro-2H-pyrano[2,3-b]pyridine-4-carboxylic acid 4-phenoxy-benzylamide], the IC50 came out at 255 nM.

For the compound `O=C(NCc1ccc(OC(F)(F)F)c(F)c1)C1CCOc2ncccc21` (racemic) [Example 53, rac-3,4-Dihydro-2H-pyrano[2,3-b]pyridine-4-carboxylic acid 3-fluoro-4-trifluoromethoxy-benzylamide], the IC50 was 1190 nM.

Regarding `O=C(NCc1cccc(C(F)(F)F)c1Cl)C1COc2ncccc21` (racemic) [Example 16, rac-2,3-Dihydro-furo[2,3-b]pyridine-3-carboxylic acid 2-chloro-3-trifluoromethyl-benzylamide], the IC50 stood at 12.6 nM.

Regarding `O=C(NCc1c(Cl)cc(Cl)cc1COCCO)C1COc2ncccc21` (racemic) [Example 93, rac-2,3-Dihydro-furo[2,3-b]pyridine-3-carboxylic acid 2,4-dichloro-6-(2-hydroxy-ethoxymethyl)-benzylamide], the IC50 was 11.4 nM.

For the compound `O=C(NCc1ccc(Cl)cc1Cl)C1CCOc2ncccc21` (racemic) [Example 39, rac-3,4-Dihydro-2H-pyrano[2,3-b]pyridine-4-carboxylic acid 2,4-dichloro-benzylamide], the IC50 was found to be 11.8 nM.

On to `O=C(NCc1c(Cl)cc(Cl)cc1CO)C1CCOc2ncccc21` (racemic) [Example 51, rac-3,4-Dihydro-2H-pyrano[2,3-b]pyridine-4-carboxylic acid 2,4-dichloro-6-hydroxymethyl-benzylamide], for which the IC50 came to 5.6 nM.

As to `O=C(NC1CCc2cc(Cl)ccc21)C1COc2ncccc21` (single isomer, unassigned) [Example 100, rac-2,3-Dihydro-furo[2,3-b]pyridine-3-carboxylic acid (5-chloro-indan-1-yl)-amide], the IC50 was found to be 59.9 nM.

With `O=C(NCc1ccc(Cl)cc1)C1COc2ncccc21` (racemic) [Example 46, rac-2,3-Dihydro-furo[2,3-b]pyridine-3-carboxylic acid 4-chloro-benzylamide], the IC50 amounted to 795 nM.

With `[2H]C([2H])([2H])c1cc(Cl)cc(Cl)c1CNC(=O)C1COc2ncccc21` (single isomer, unassigned) [Example 98, 2,3-Dihydro-furo[2,3-b]pyridine-3-carboxylic acid 2,4-dichloro-6-trideuteromethyl-benzylamide], the IC50 turned out to be 1.8 nM.

For `NC(=O)C1(NC(=O)C2COc3ncccc32)CCCC1` (racemic) [Example 63, rac-2,3-Dihydro-furo[2,3-b]pyridine-3-carboxylic acid (1-carbamoyl-cyclopentyl)-amide], the IC50 is 3850 nM.

As to `O=C(NCc1cccc(C(F)(F)F)c1Cl)C1CCOc2ncccc21` (racemic) [Example 40, rac-3,4-Dihydro-2H-pyrano[2,3-b]pyridine-4-carboxylic acid 2-chloro-3-trifluoromethyl-benzylamide], the IC50 is 2.7 nM.

Regarding `O=C(NCCCc1ccc(Cl)cc1Cl)C1COc2ncccc21` (racemic) [Example 106, rac-2,3-Dihydro-furo[2,3-b]pyridine-3-carboxylic acid [3-(2,4-dichloro-phenyl)-propyl]-amide], the IC50 came to 346 nM.

As to `O=C(NC1(c2ccc(Cl)cc2Cl)CC1)C1CCOc2ncccc21` (racemic) [Example 58, rac-3,4-Dihydro-2H-pyrano[2,3-b]pyridine-4-carboxylic acid [1-(2,4-dichloro-phenyl)-cyclopropyl]-amide], the IC50 was determined as 2700 nM.

For the compound `O=C(NCc1ccc(C(F)(F)F)cc1Cl)C1COc2ncccc21` (racemic) [Example 103, rac-2,3-Dihydro-furo[2,3-b]pyridine-3-carboxylic acid 2-chloro-4-trifluoromethyl-benzylamide], the IC50 stood at 80.4 nM.

As for `O=C(NCc1ccc(Oc2ccccc2)cc1)C1COc2ncccc21` (racemic) [Example 44, rac-2,3-Dihydro-furo[2,3-b]pyridine-3-carboxylic acid 4-phenoxy-benzylamide], the IC50 was determined as 1120 nM.

The test is the same for the next values; noted with them: read-out: IC50 [nM], antagonistic activities with respect to the P2X7 receptor.
On to “(S)-2,3-Dihydro-furo[2,3-b]pyridine-3-carboxylic acid (R)-indan-1-ylamide and (R)-2,3-Dihydro-furo[2,3-b]pyridine-3-carboxylic acid (R)-indan-1-ylamide [Example 69]”, for which the IC50 is 400 nM.

Take `O=C(N[C@H](CO)C1CCCCC1)[C@H]1CCOc2ncccc21` (mixture of isomers) [Example 8, (S)-3,4-Dihydro-2H-pyrano[2,3-b]pyridine-4-carboxylic acid ((S)-1-cyclohexyl-2-hydroxy-ethyl)-amide and (R)-3,4-Dihydro-2H-pyrano[2,3-b]pyridine-4-carboxylic acid ((S)-1-cyclohexyl-2-hydroxy-ethyl)-amide]: the IC50 worked out at 127 nM.

Staying with this test, now noted: read-out: IC50 [nM], antagonistic activities with respect to the P2X7 receptor; HEK-293 cells expressing human recombinant P2X7 receptor; YO-PRO-1 fluorescence; ATP 250 μM, 90 minutes; highest concentration 10 μM.
`O=C(NCC(c1cnc(C(F)(F)F)nc1)N1CCOCC1)C1COc2ncccc21` (centres unmarked) [Example 84, 2,3-Dihydro-furo[2,3-b]pyridine-3-carboxylic acid [2-morpholin-4-yl-2-(2-trifluoromethyl-pyrimidin-5-yl)-ethyl]-amide]: the IC50 worked out at 20.8 nM.

For the compound `NC(=O)C1CCCCC1NC(=O)C1COc2ncccc21` (centres unmarked) [Example 66, 2,3-Dihydro-furo[2,3-b]pyridine-3-carboxylic acid (2-carbamoyl-cyclohexyl)-amide], the IC50 came to 5880 nM.

In the case of `O=C(NCc1c(Cl)cc(Cl)cc1CO)C1COc2ncccc21` (single isomer, unassigned) [Example 24, 2,3-Dihydro-furo[2,3-b]pyridine-3-carboxylic acid 2,4-dichloro-6-hydroxymethyl-benzylamide], the IC50 worked out at 39.4 nM.

`O=C(N[C@H](CO)c1ccc(Cl)cc1Cl)C1COc2ncccc21` (single isomer, unassigned) [Example 6]: the IC50 was determined as 621 nM.

`O=C(NC1CC1c1ccccc1)C1COc2ncccc21` (centres unmarked) [Example 64, 2,3-Dihydro-furo[2,3-b]pyridine-3-carboxylic acid (2-phenyl-cyclopropyl)-amide]: the IC50 is 4850 nM.

Take `C[C@@H](NC(=O)C1COc2ncccc21)c1ccc(Cl)cc1Cl` (stereo partly drawn) [Example 70, 2,3-Dihydro-furo[2,3-b]pyridine-3-carboxylic acid [(R)-1-(2,4-dichloro-phenyl)-ethyl]-amide]: the IC50 is 110 nM.

As for `O=C(NCC(c1cnc(C2CC2)nc1)N1CCOCC1)C1COc2ncccc21` (centres unmarked) [Example 91, 2,3-Dihydro-furo[2,3-b]pyridine-3-carboxylic acid [2-(2-cyclopropyl-pyrimidin-5-yl)-2-morpholin-4-yl-ethyl]-amide], the IC50 amounted to 215 nM.

Regarding `COc1ccc(C(CNC(=O)C2COc3ncccc32)N2CCOCC2)cn1` (centres unmarked) [Example 87, 2,3-Dihydro-furo[2,3-b]pyridine-3-carboxylic acid [2-(6-methoxy-pyridin-3-yl)-2-morpholin-4-yl-ethyl]-amide], the IC50 amounted to 978 nM.

For the compound `Cc1cc(Cl)cc(Cl)c1CNC(=O)C1COc2ncccc21` (single isomer, unassigned) [Example 3, 2,3-Dihydro-furo[2,3-b]pyridine-3-carboxylic acid 2,4-dichloro-6-methyl-benzylamide], the IC50 amounted to 18.3 nM.

For `O=C(N[C@@H]1CCCc2cccc(Cl)c21)C1COc2ncccc21` (stereo partly drawn) [Example 111, 2,3-Dihydro-furo[2,3-b]pyridine-3-carboxylic acid ((R)-8-chloro-1,2,3,4-tetrahydro-naphthalen-1-yl)-amide], the IC50 was determined as 221 nM.

For the compound `O=C(NCC(c1cnc(C(F)(F)F)nc1)N1CCC(F)(F)CC1)C1COc2ncccc21` (centres unmarked) [Example 62, 2,3-Dihydro-furo[2,3-b]pyridine-3-carboxylic acid [2-(4,4-difluoro-piperidin-1-yl)-2-(2-trifluoromethyl-pyrimidin-5-yl)-ethyl]-amide], the IC50 was 46.9 nM.

On to `O=C(N[C@H](CO)c1ccc(Cl)cc1Cl)[C@H]1CCOc2ncccc21` (mixture of isomers) [Example 9, (S)-3,4-Dihydro-2H-pyrano[2,3-b]pyridine-4-carboxylic acid [(S)-1-(2,4-dichloro-phenyl)-2-hydroxy-ethyl]-amide and (R)-3,4-Dihydro-2H-pyrano[2,3-b]pyridine-4-carboxylic acid [(S)-1-(2,4-dichloro-phenyl)-2-hydroxy-ethyl]-amide], for which the 50% inhibitory concentration (IC50) was found to be 70.8 nM.

Take `O=C(NCC(c1ccc(C(F)(F)F)nc1)N1CCOCC1)C1COc2ncccc21` (centres unmarked) [Example 92, 2,3-Dihydro-furo[2,3-b]pyridine-3-carboxylic acid [2-morpholin-4-yl-2-(6-trifluoromethyl-pyridin-3-yl)-ethyl]-amide]: the IC50 came to 82.2 nM.

By IC50 is commonly meant the concentration at which inhibition is half-maximal.
